Reference: BindingDB's records for patent US10550100 (GALAPAGOS NV, 2020)

Molecular target: T1, A disintegrin and metalloproteinase with thrombospondin motifs 6 (Human, UniProt Q9UKP5)
T1 sequence (Q9UKP5 whole entry): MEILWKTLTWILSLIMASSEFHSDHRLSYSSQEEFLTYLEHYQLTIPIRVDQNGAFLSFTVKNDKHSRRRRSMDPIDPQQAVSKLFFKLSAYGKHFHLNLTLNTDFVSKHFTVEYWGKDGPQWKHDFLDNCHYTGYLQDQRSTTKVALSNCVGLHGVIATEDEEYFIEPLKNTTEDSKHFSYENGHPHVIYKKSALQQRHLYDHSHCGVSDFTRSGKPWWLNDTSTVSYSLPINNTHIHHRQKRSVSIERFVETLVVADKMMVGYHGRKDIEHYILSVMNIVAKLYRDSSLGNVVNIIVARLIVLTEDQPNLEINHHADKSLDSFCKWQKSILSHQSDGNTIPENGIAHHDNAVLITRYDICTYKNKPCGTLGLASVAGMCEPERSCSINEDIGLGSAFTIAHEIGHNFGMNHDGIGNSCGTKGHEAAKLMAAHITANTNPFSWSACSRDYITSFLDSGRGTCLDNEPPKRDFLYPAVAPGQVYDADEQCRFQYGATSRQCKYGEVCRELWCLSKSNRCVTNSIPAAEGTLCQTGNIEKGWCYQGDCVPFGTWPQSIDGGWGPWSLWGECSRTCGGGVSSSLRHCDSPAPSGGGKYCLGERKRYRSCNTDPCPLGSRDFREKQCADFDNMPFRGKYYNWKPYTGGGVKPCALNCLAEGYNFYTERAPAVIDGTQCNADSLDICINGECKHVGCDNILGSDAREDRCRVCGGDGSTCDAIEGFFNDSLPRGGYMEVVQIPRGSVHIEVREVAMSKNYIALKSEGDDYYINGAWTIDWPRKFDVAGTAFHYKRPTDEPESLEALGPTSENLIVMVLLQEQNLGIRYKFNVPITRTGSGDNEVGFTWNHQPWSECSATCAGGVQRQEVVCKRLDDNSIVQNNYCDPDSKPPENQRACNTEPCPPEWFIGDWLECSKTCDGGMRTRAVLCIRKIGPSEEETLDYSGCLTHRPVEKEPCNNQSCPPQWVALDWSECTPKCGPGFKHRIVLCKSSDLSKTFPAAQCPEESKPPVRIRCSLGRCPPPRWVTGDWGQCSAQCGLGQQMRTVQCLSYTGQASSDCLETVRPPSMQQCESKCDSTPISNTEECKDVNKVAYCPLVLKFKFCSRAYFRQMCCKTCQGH
Assay: hADAMTS-6 Assay
Method: Without ADAMTS6, the emission of the probe is quenched. If the substrate is cleaved by ADAMTS6, the emission of the probe is not quenched anymore. […] The reaction is started by addition of 10 μL of 1 μM 520 MMP FRET Substrate XII (final concentration, diluted in same buffer as described above) and the mixture is incubated at 37° C. for 2 h. […] After this incubation, cleavage of the substrate is measured using the Envision (Perkin Elmer, exc485/em530).

IC50: > 0.1 µM
Structure (SMILES): COc1c(Cl)cc(Cl)cc1C1CCN(C(=O)CC[C@H]2NC(=O)NC2=O)CC1 [US10550100, Compound 70]
